According to US20180014536A1, “AGENT FOR IMPROVING PLANT GROWTH AND METHOD FOR PRODUCING PLANT USING SAME” (FUSO CHEMICAL CO., LTD., priority 2015, published 2018):
Where “and” joins values, the source holds several entries; their conditions need not be identical. Equal entries are not always repeated.

Columns and labels:
[1] = tested on: cucumber; assay: Verification experiment 10: ammonia stress, TTC test; format: in vivo; conditions: cut leaves immersed in 1.0% ammonia solution for three hours
[2] = tested on: racomitrium moss; assay: Verification experiment 19: ammonia stress, Bryophyta, TTC test; format: in vivo; conditions: samples immersed in 1.0% ammonia solution for 48 hours
[3] = tested on: cucumber; assay: Verification experiment 9: organic acid stress, TTC test; format: in vivo; conditions: cut leaves immersed in 0.4% acetic acid solution for two hours
[4] = tested on: cucumber; assay: Verification experiment 12: salt stress, TTC test; format: in vivo; conditions: cut leaves immersed in 1.0% saline water for 24 hours
[5] = tested on: Japanese mustard spinach; assay: Verification experiment 1: high temperature stress, hydroponics (first time); format: in vivo; conditions: first time
Description: In order to confirm that the above substances have an efficacy such as alleviation of the various stresses on a plant or promotion of plant growth, some verification experiments were conducted. In each of the verification experiments, solutions of the above substances were used. A concentration thereof was in a range from 0.01 ppm to 10 ppm, in order to exert a sufficient efficacy on a plant. This concentration was appropriately adjusted for each verification experiment. For comparison, similar verification experiments using sanguinarine were conducted. In such a verification experiment for an identical purpose to the above, a concentration of sanguinarine was set to be identical to those of the above substances. A verification experiment for high temperature stress was conducted by use of Japanese mustard spinach. The experiment was conducted in the following procedures. […] Note that the agent used was zerumbone.

[6] = tested on: cucumber; assay: Verification experiment 11: ultraviolet ray stress, TTC test; format: in vivo; conditions: cut leaves irradiated with ultraviolet ray for 24 hours
[7] = tested on: cucumber; assay: Verification experiment 8: low temperature stress, TTC test; format: in vivo
[8] = tested on: radish sprouts; assay: Verification experiment 7: recovering from dry stress; format: in vivo; conditions: among the four samples; sprayed, dried one night, replanted
Text: Next, radish sprouts seedlings were dried so that the radish sprouts seedlings were severely damaged. Subsequently, adequate water was given to the radish sprouts seedlings. Thus, whether or not the radish sprouts seedlings could be recovered from the damage was verified. First, radish sprouts were immersed in water during night so that germination thereof was promoted. After germination, radish sprouts seedlings planted in vermiculite were impregnated in a nutrient fluid of the Ensi formulation. The radish sprouts seedlings were cultured at 25° C. for five days. A light period during the culture was six hours. Then, zerumbone was sprayed to the radish sprouts seedlings. Meanwhile, water was sprayed to samples used as a control. These radish sprouts seedlings were cultured for one more day. Thereafter, the roots thereof were washed so that the vermiculite was removed therefrom. Then, the roots were wiped with a paper towel. The radish sprouts seedlings were then arranged on a tray, and were dried for one night. The radish sprouts seedlings thus dried were planted in culture soil obtained by blending leaf soil and […] soil in a ratio of 4:6 in a pot.

[9] = tested on: autumn fern; assay: Verification experiment 16: ammonia stress, Pteridophyta, TTC test; format: in vivo; conditions: cut leaves immersed in 1.0% ammonia solution for 48 hours
[10] = tested on: cucumber; assay: Verification experiment 6: dry stress; format: in vivo
Description: By use of cucumber, a resistance to dry stress was investigated. 3 ml of Zerumbone was added to cucumber seedlings immediately after germination. The cucumber seedlings were cultivated for 18 days. Meanwhile, another cucumber seedlings were cultivated for 18 days without Zerumbone added thereto. Throughout the cultivation period, a minimum amount of water was given and watering was conducted a minimum number of times so that the soil surface was always kept dry. […] A weight of each of the seedlings was measured. […] Note that, except for the agent, the cultivation conditions used were identical to those of the case where zerumbone was used.

[11] = tested on: autumn fern; assay: Verification experiment 15: organic acid stress, Pteridophyta, TTC test; format: in vivo; conditions: cut leaves immersed in 0.4% acetic acid solution for three hours
[12] = tested on: radish sprouts; assay: Verification experiment 4: acid stress (nitric acid); conditions: leaf spray, then immersed in pH 2.5 acid solution for one minute
Description: By use of radish sprouts, a resistance to acid stress caused by nitric acid was investigated.
Zerumbone was sprayed onto the leaf surfaces of the cotyledons of radish sprouts seedlings three to four days after germination, and the seedlings were then cultivated for several days. Meanwhile, only water was sprayed onto the leaf surfaces of another radish sprouts seedlings, and the seedlings were then cultivated for several days. The radish sprouts seedlings thus cultivated were immersed in a pH 2.5 acid solution for one minute.

[13] = tested on: racomitrium moss; assay: Verification experiment 17: high temperature stress, Bryophyta, TTC test; format: in vivo; conditions: samples immersed in tap water of 45° C. for 18 hours
Description: As a Bryophyta, racomitrium moss was used, which is a Bryophyta widely used for greening a park, a rooftop, and a garden. Verification experiments for various stresses were conducted thereon. The experiments were conducted in the following procedures. […] Meanwhile, the control sample was sprayed only with water. After the spraying, the racomitrium mosses were cultivated at 25° C. for one day. Then, the samples were subjected to various stresses. Thus, cell activities of the samples were determined by TTC test. […] On such samples, TTC test was conducted.

[14] = tested on: leaf lettuce; assay: Verification experiment 13: hydroponics test on leaf lettuce in vinyl greenhouse in summer; format: in vivo
[15] = tested on: radish sprouts; assay: Verification experiment 5: alkaline stress (potassium hydroxide); conditions: leaf spray, then immersed in pH 9.0 solution
Description: Next, by use of radish sprouts, a resistance to alkaline stress caused by potassium hydroxide was investigated.
Zerumbone was sprayed onto the leaf surfaces of the cotyledons of radish sprouts seedlings three to four days after germination, and the seedlings were then cultivated for several days. Meanwhile, only water was sprayed onto the leaf surfaces of another radish sprouts seedlings, and the seedlings were then cultivated for several days. The radish sprouts seedlings thus cultivated were immersed in a pH 9.0 acid solution.

[16] = tested on: Japanese mustard spinach; assay: Verification experiment 2: high temperature and low sunshine stress, hydroponics (second time-B)
[17] = tested on: cucumber; assay: Verification experiment 3: high temperature stress, soil culture; format: in vivo; conditions: leaf spray on cotyledons, 10 days cultivation
Description: Next, an experiment was conducted to confirm effectiveness of the agent in soil culture of cucumber. First, seeds of cucumber were sown in culture soil thrown into 15 cm-pots (size-5 pots) such that the seeds have spaces therebetween. The culture soil contains, as fertilizer components, 180 mg/L of nitrogen, 120 mg/L of phosphoric acid, and 220 mg/L of potassium. The soil was adjusted at pH 6.0. Watering was performed every early morning. […] A growth difference was observed therebetween.

[18] = tested on: autumn fern; assay: Verification experiment 14: high temperature stress, Pteridophyta, TTC test; format: in vivo; conditions: cut leaves immersed in tap water of 45° C. for 18 hours
Description: As a Pteridophyta, autumn fern was used, which is a representative Pteridophyta often found in, […] bright forest. Verification experiments for various stresses were conducted thereon. The experiments were conducted in the following procedures. […] Meanwhile, the leaf surfaces of the control sample were sprayed only with water. After the spraying onto the leaf surfaces, the autumn fern seedlings were cultivated at 25° C. for one day. The leaves were cut in a suitable size, and were then subjected to various stresses. Then, cell activities of the samples were determined by TTC test. The leaves that were cut in the suitable size were immersed in tap water of 45° C. for 18 hours. On such leaves, TTC test was conducted.

[19] = tested on: Japanese mustard spinach; assay: Verification experiment 2: high temperature stress, hydroponics, plenty of sunlight (second time-A)
[20] = tested on: racomitrium moss; assay: Verification experiment 18: organic acid stress, Bryophyta, TTC test; format: in vivo; conditions: samples immersed in 0.4% acetic acid solution for three hours
[21] = leaf lettuce, summer greenhouse hydroponics
[22] = leaf lettuce, summer greenhouse hydroponics, listed as zerumbone

## C/C1=C\CC(C)(C)/C=C/C(=O)/C(C)=C/CC1 [Zerumbone, zerumbone]
[1]
  cells having an activity (TTC test): a part of the cells
[2]
  TTC test dyeing (cell activity): dyed slightly
[3]
  cells having an activity (TTC test): approximately half of the cells
[4]
  cells alive (TTC test): most of the cells
[5]; average weight of 10 samples
  Average: 1.760 g
[5]; average weights compared
  weights greater than those of the control samples: approximately 15%
[5]; control = 100.0
  Growth ratio (%): 115.4%
[5]; dry weight of 10 seedlings, leaf spray, nine days culture, maximum temperature 30-43 °C, plenty of sunlight
  Weight of 10 samples: 1.729 g and 1.732 g and 1.787 g and 1.792 g
[6]
  cells having an activity (TTC test): approximately half of the cells
[7]; cut leaves left two days in dark place at 0° C.
  TTC test dyeing (cell activity): dyed deeply
[7]; cut leaves left two days in dark place at −10° C.
  TTC test dyeing (cell activity): dyed slightly
[7]; remaining plants cultivated two days under fluorescent lamp at 4° C.
  TTC test dyeing of leaves (cell activity): dyed deeply except for their peripheries
[8]
  samples recovered from the dry state: three
[9]
  TTC test dyeing (cell activity): dyed slightly
[10]; 18 days dry stress
  average weight greater than the control samples: approximately 13%
[10]; after 18-day cultivation under dry stress
  growth compared with control (FIG. 2): grew more greatly than the control
[10]; average seedling weight after 18 days dry stress
  Average: 3.00 g
[10]; control = 100.0
  Weight comparison (%): 113.0%
[11]
  TTC test dyeing (cell activity): dyed slightly
[12]
  withering of seedlings: Slight withering was observed in some portions
[13]
  TTC test dyeing (cell activity): dyed slightly
[14]; day on which harvest size reached 150 g to 180 g
  Growing speed: Harvest timing: 30th day after day after germination
[14]; [21]
  Disease resistance: Powdery mildew: Not occurred
  Disease resistance: Root rot: Not occurred
  Physiological disorder (quality): Heterophyll: Not occurred
  Physiological disorder (quality): Root spread condition: Very good
  Physiological disorder (quality): Taste: No bitterness
  Physiological disorder (quality): Tip burn (dead fringes of leaf): Not occurred
  Physiological disorder (quality): Unproductive growth: Not occurred
  occurrence of a disease (overall): occurrence of a disease was not observed
  physiological disorder (overall): no physiological disorder occurred
[14]; [22]
  Physiological disorder (quality): Root spread condition: far better than in the sanguinarine test section
  Physiological disorder (quality): Taste: no bitterness
[15]
  resistance to alkaline stress (withering): gives a plant resistance to both acid and alkali
[16]; Table 3 experiment, almost no sunlight
  growth better than the growth of the control samples: approximately 37%
[16]; control = 100.0, second time-B
  Growth ratio (%): 136.5%
[16]; dry weight of 10 seedlings, nine days, 30-43 °C, almost no sunlight, second time-B
  Weight of 10 samples: 2.137 g and 2.163 g
[16]; second time-B
  Average: 2.150 g
[17]
  growth of cucumber seedlings (FIG. 1): grown greatly
[18]
  TTC test dyeing (cell activity): dyed slightly
[19]; Table 2 experiment
  weights greater than those of the control samples: approximately 17%
[19]; control = 100.0, second time-A
  Growth ratio (%): 116.7%
[19]; dry weight of 10 seedlings, nine days, 30-43 °C, plenty of sunlight, second time-A
  Weight of 10 samples: 2.120 g and 2.176 g and 2.213 g and 2.298 g
[19]; second time-A
  Average: 2.202 g
[20]
  TTC test dyeing (cell activity): dyed slightly
